This is an account of results in PubChem BioAssay (NCI).

Molecules are shown by their SMILES.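 Test compounds were applied to cells in 96-well plates for 48 hours at 5 doses. At the TGI there is no net growth.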 Where a SMILES comes first, the peptide text is derived from it. Peptide text beside a SMILES is read from it. [ ]: non-standard residue; d: D form. The star is where a group is joined. * marks the point of attachment. Phe(4-NO2) = N[CH](Cc1ccc([N+](=O)[O-])cc1)C(=O)O; Boc = CC(C)(C)OC(=O)*; OtBu = CC(C)(C)O*

Some test systems named below: HL-60(TB) leukemia; NCI-H226 lung; DU-145 prostate; T-47D breast; SK-MEL-2 melanoma; SR leukemia; NCI-H460 lung; EKVX NSCLC; HCC-2998 colon; NCI/ADR-RES ovarian.
Holding throughout (test): growth of human tumour cells (NCI), 48 h

On to `O=C(NCCCCl)c1c(O)c2ccccc2[nH]c1=O`, for which the TGI in the assay on HL-60(TB) leukemia, with NCI-H226 lung, in the assay on DU-145 prostate, with T-47D breast, in the assay with SK-MEL-2 melanoma and with SR leukemia was more than 100 µM in each case. The TGI in the assay on NCI-H460 lung, in the assay on EKVX NSCLC, with HCC-2998 colon and in the assay with NCI/ADR-RES ovarian was more than 100 µM throughout.
Consider `Clc1ncc(C(Cl)(Cl)Cl)nc1-c1ccccc1`, for which the TGI in the assay with HL-60(TB) leukemia came to 6.41 µM; in the assay on NCI-H226 lung, 39.4 µM; in the assay on DU-145 prostate it was 2.96 µM; with T-47D breast it was 4.1 µM; in the assay with SK-MEL-2 melanoma, 5.04 µM; in the assay on SR leukemia it was 10.9 µM. In addition, the TGI with NCI-H460 lung was 11.3 µM; in the assay on EKVX NSCLC, 6.02 µM; in the assay on HCC-2998 colon, 2.9 µM; in the assay with NCI/ADR-RES ovarian, 57.7 µM.
In the case of `CSCCC(NC(=O)C(CC(C)C)NC(=O)CNC(=O)OC(C)(C)C)C(=O)N(C)C` (stereo not drawn) (Boc-Gly-Leu-Met-NMe2; configuration not given here), the TGI with HL-60(TB) leukemia, in the assay with NCI-H226 lung, in the assay on DU-145 prostate, in the assay with T-47D breast, in the assay on SK-MEL-2 melanoma and in the assay with SR leukemia was more than 100 µM each time. The TGI in the assay on EKVX NSCLC and in the assay on NCI/ADR-RES ovarian was more than 100 µM each time.
Consider `COC(=O)c1ccc(OCc2ccc3nc(-c4ccccc4)c(Cl)nc3c2)cc1`, for which the TGI in the assay with HL-60(TB) leukemia, in the assay with DU-145 prostate, in the assay with T-47D breast, in the assay on SK-MEL-2 melanoma, in the assay on SR leukemia and in the assay with NCI-H460 lung was more than 100 µM in each case. Further, the TGI in the assay on EKVX NSCLC, in the assay on HCC-2998 colon and in the assay on NCI/ADR-RES ovarian was more than 100 µM in each case.
For `COC1=CC2(C=CC1=O)CCN=c1c(O)c3c(c(O)c12)=NC=N3` (centres undefined), the TGI in the assay with HL-60(TB) leukemia, with DU-145 prostate, in the assay with T-47D breast, in the assay on SK-MEL-2 melanoma, with SR leukemia and with NCI-H460 lung was more than 100 µM each time. Moreover, the TGI in the assay on EKVX NSCLC, with HCC-2998 colon and in the assay with NCI/ADR-RES ovarian was more than 100 µM in each case.
Take `COc1cc2c(cc1OC)C1Cc3ccccc3CN1CCC2` (centres undefined): the TGI in the assay with NCI-H226 lung, in the assay on DU-145 prostate, with T-47D breast, in the assay with SK-MEL-2 melanoma, in the assay on SR leukemia and with NCI-H460 lung was more than 100 µM each time. Moreover, the TGI with EKVX NSCLC, in the assay with HCC-2998 colon and in the assay on NCI/ADR-RES ovarian was more than 100 µM each time.
Turning to `COC(=O)C(Cc1ccc([N+](=O)[O-])cc1)NC(=O)C(CC(=O)OC(C)(C)C)NC(=O)OC(C)(C)C` (centres undefined) (Boc-Asp(OtBu)-[Phe(4-NO2)]-OMe; configuration not given here), the TGI in the assay with HL-60(TB) leukemia was more than 100 µM; with NCI-H226 lung it was more than 100 µM; in the assay with DU-145 prostate, more than 100 µM; in the assay with T-47D breast it was more than 100 µM; in the assay with SK-MEL-2 melanoma, more than 100 µM; with SR leukemia, 54 µM. The TGI in the assay on NCI-H460 lung, with EKVX NSCLC, in the assay on HCC-2998 colon and with NCI/ADR-RES ovarian was more than 100 µM throughout.
Turning to `COC(=O)CNC(=O)/C=C/[C@H](O[Si](C)(C)C(C)(C)C)[C@H](/C=C/C(=O)NCC(=O)OC)O[Si](C)(C)C(C)(C)C`, the TGI in the assay on NCI-H226 lung, in the assay on DU-145 prostate, in the assay on T-47D breast, in the assay with SK-MEL-2 melanoma, in the assay with SR leukemia and in the assay on NCI-H460 lung was more than 25 µM throughout. In addition, the TGI in the assay on EKVX NSCLC, in the assay on HCC-2998 colon and in the assay on NCI/ADR-RES ovarian was more than 25 µM in each case.
For `Cc1cnc2[nH]c(-c3ccccc3)cc(=O)c2c1`, the TGI is 0.226 µM with HL-60(TB) leukemia; 9.69 µM in the assay with NCI-H226 lung; more than 100 µM in the assay with DU-145 prostate; more than 100 µM with T-47D breast; more than 35.7 µM in the assay with SK-MEL-2 melanoma; more than 100 µM in the assay on SR leukemia. Besides, the TGI in the assay on NCI-H460 lung is more than 47.5 µM; in the assay on EKVX NSCLC, more than 82.2 µM; with HCC-2998 colon, 1.96 µM; in the assay on NCI/ADR-RES ovarian, 0.0447 µM.
As for `O=C(CCCN1CCc2[nH]c3cc(F)ccc3c2C1)c1ccc(F)cc1`, the TGI came out at 27.2 µM in the assay with HL-60(TB) leukemia; 38.7 µM in the assay with NCI-H226 lung; 26.1 µM in the assay with DU-145 prostate; 36.1 µM in the assay on T-47D breast; 32.4 µM in the assay with SK-MEL-2 melanoma; 26.1 µM in the assay on SR leukemia. The TGI amounted to 23.9 µM with NCI-H460 lung, 29.3 µM in the assay on EKVX NSCLC, 11.9 µM in the assay with HCC-2998 colon and 36.1 µM with NCI/ADR-RES ovarian.
With `COc1cccc(N2N=C3c4ccccc4-n4c(nc5ccccc54)C3C2N)c1` (centres undefined), the TGI in the assay with HL-60(TB) leukemia, in the assay with DU-145 prostate, with T-47D breast, with SK-MEL-2 melanoma, with SR leukemia and in the assay with NCI-H460 lung was more than 100 µM throughout. Besides, the TGI in the assay with EKVX NSCLC, in the assay with HCC-2998 colon and in the assay on NCI/ADR-RES ovarian was more than 100 µM in each case.
For the compound `Cc1ccc(C2=Nn3c(nc4sc(-c5ccccc5)cc4c3=O)SC2)cc1`, the TGI with HL-60(TB) leukemia, with NCI-H226 lung, with DU-145 prostate, in the assay on T-47D breast, in the assay with SR leukemia and in the assay on NCI-H460 lung was more than 100 µM throughout. The TGI with EKVX NSCLC, in the assay with HCC-2998 colon and in the assay on NCI/ADR-RES ovarian was more than 100 µM in each case.
Turning to `c1ccc(C/C(=N\Nc2nc3ccccc3o2)c2ccccn2)cc1`, the TGI was 1.68 µM with HL-60(TB) leukemia; 0.363 µM with NCI-H226 lung; 8.38 µM with DU-145 prostate; more than 33.5 µM with T-47D breast; 20.7 µM with SK-MEL-2 melanoma; 2.05 µM in the assay with SR leukemia. The TGI in the assay on NCI-H460 lung was 2.27 µM; in the assay with EKVX NSCLC, less than 0.0267 µM; in the assay on NCI/ADR-RES ovarian it was 0.0824 µM.
Consider `COc1ccc(S(=O)(=O)Nc2ccc(-c3csc(N4C(=O)/C(=C/C=C\c5ccccc5)N=C4c4ccccc4)n3)cc2)cc1Cl`, for which the TGI in the assay on HL-60(TB) leukemia was 59.9 µM; in the assay on NCI-H226 lung it was more than 100 µM; in the assay with DU-145 prostate, 91.6 µM; in the assay with T-47D breast, 57.1 µM; in the assay with SK-MEL-2 melanoma, 56.3 µM; in the assay with SR leukemia it was more than 100 µM. The TGI in the assay with NCI-H460 lung was more than 100 µM; in the assay on NCI/ADR-RES ovarian, 73.8 µM.
